Experimental data taken from article PMC11876601 (Molecular Systems Biology, 2025).
Like-named read-outs stand apart in the source and are kept apart here.

Key:
Assay in all cases: Drug combination viability screen (ATPlite, 72 h);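 as to AUC: area under vehicle-normalized viability curve scaled 0 to 100 percent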;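 as to Curve bottom: fraction of vehicle control viability from four-parameter log-logistic fit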
Assay type in all cases: cell-based, human
Design in all cases: AUC: unit not given beside the values
BxPC-3 cells = details: for EC50: Homo sapiens, BXPC-3
Protocol: (§1) Cell viability was assessed by measuring ATP levels to indicate metabolic activity.
(§2) Afterward, small amounts were transferred to 384-well intermediate plates (Greiner Bio-One GmbH, Germany). […] For drug combination screening, 1000 to 5000 cells were seeded into 384-well plates (CulturPlate™, Perkin Elmer, MA, USA) using a Multidrop™ Combi Reagent Dispenser (Thermo Scientific, MA, USA) in 50 µl medium per well 24 h prior to drug treatment (seeding densities see Appendix Table S1). […] The final DMSO concentration in each well was 0.2%. […] Eight wells per plate without library drug served as negative controls, and sixteen wells per plate containing 5 µM Staurosporine served as positive controls. Control plates not containing any drug were used to correct for incubation effects, and data quality was assessed by calculation of Z-prime of positive and negative controls according to1 Z-prime=1−3SDpos+3SDneg/[…] where SD is the standard deviation. […] Dose–response curves from the experimental and hypothetical data were compared, and shifts in AUC were used to describe combination effects (AUC∆ = AUChypothetical − AUCexperimental). […] Only combinations with R^2 > 0.8 in both conditions were considered in the synergy analysis.

Colo-357 cells = details: for EC50: Homo sapiens, COLO357
Protocol: as §1, §2

HuP-T4 cells = details: for EC50: Homo sapiens
Protocol: as §1, §2

MiaPaCa-2 cells = details: for EC50: Homo sapiens
Protocol: as §1, §2

PANC-1 cells = tested on: PANC-1 cells;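 as to AUC: area under vehicle-normalized viability curve scaled 0 to 100 percent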;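 as to Curve bottom: fraction of vehicle control viability from four-parameter log-logistic fit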
Protocol: as §1, §2

PaTu-8988-T cells = details: for EC50: Homo sapiens, PaTu 8988t
Protocol: as §1, §2

Nc1ccn([C@@H]2O[C@H](CO)[C@@H](O)C2(F)F)c(=O)n1 [GEM, Gemcitabine]
Reponse (BxPC-3 cells; BxPC-3, R1, 41.15 nM): 1061560
Reponse (BxPC-3 cells; BxPC-3, R1, 123.46 nM): 1199800
Reponse (BxPC-3 cells; BxPC-3, R1, 370.37 nM): 1177280
Reponse (BxPC-3 cells; BxPC-3, R1, 1111.11 nM): 1044400
Reponse (BxPC-3 cells; BxPC-3, R1, 3333.33 nM): 1111640
Reponse (BxPC-3 cells; BxPC-3, R1, 10000 nM): 1115240
Reponse (BxPC-3 cells; BxPC-3, R2, 13.72 nM): 1392120
Reponse (BxPC-3 cells; BxPC-3, R2, 41.15 nM): 1083440
Reponse (BxPC-3 cells; BxPC-3, R2, 123.46 nM): 1301640
Reponse (BxPC-3 cells; BxPC-3, R2, 370.37 nM): 1316120
Reponse (BxPC-3 cells; BxPC-3, R2, 1111.11 nM): 1172200
Reponse (BxPC-3 cells; BxPC-3, R2, 3333.33 nM): 1101720
Reponse (BxPC-3 cells; BxPC-3, R2, 10000 nM): 982880
Curve bottom (BxPC-3 cells; BxPC-3, GEM curve fit): 0.26
Curve effect size (BxPC-3 cells; BxPC-3, GEM curve fit): 0.75
Curve slope (BxPC-3 cells; BxPC-3, GEM curve fit): 1.82
Curve top (BxPC-3 cells; BxPC-3, GEM curve fit): 1.03
AUC (BxPC-3 cells; BxPC-3, GEM curve fit, in %): 45.89
EC50 (BxPC-3 cells; read-out: EC50): 3.59 nM
EC50 (BxPC-3 cells; read-out: pEC50 (converted)): 3.55 nM
ATP luminescence signal (Colo-357 cells; Colo-357, R1, 13.72 nM): 68560
ATP luminescence signal (Colo-357 cells; Colo-357, R1, 41.15 nM): 61560
ATP luminescence signal (Colo-357 cells; Colo-357, R1, 123.46 nM): 70640
ATP luminescence signal (Colo-357 cells; Colo-357, R1, 370.37 nM): 48200
ATP luminescence signal (Colo-357 cells; Colo-357, R1, 1111.11 nM): 53560
ATP luminescence signal (Colo-357 cells; Colo-357, R1, 3333.33 nM): 50680
ATP luminescence signal (Colo-357 cells; Colo-357, R1, 10000 nM): 66360
ATP luminescence signal (Colo-357 cells; Colo-357, R2, 13.72 nM): 110000
ATP luminescence signal (Colo-357 cells; Colo-357, R2, 41.15 nM): 110560
ATP luminescence signal (Colo-357 cells; Colo-357, R2, 123.46 nM): 89840
ATP luminescence signal (Colo-357 cells; Colo-357, R2, 370.37 nM): 97560
ATP luminescence signal (Colo-357 cells; Colo-357, R2, 1111.11 nM): 70040
ATP luminescence signal (Colo-357 cells; Colo-357, R2, 3333.33 nM): 80720
ATP luminescence signal (Colo-357 cells; Colo-357, R2, 10000 nM): 83360
Curve bottom (Colo-357 cells; Colo-357, GEM curve fit): 0.03
Curve effect size (Colo-357 cells; Colo-357, GEM curve fit): 0.97
Curve slope (Colo-357 cells; Colo-357, GEM curve fit): 3.24
Curve top (Colo-357 cells; Colo-357, GEM curve fit): 0.97
AUC (Colo-357 cells; Colo-357, GEM curve fit, in %): 20.82
EC50 (Colo-357 cells; read-out: EC50): 1.32 nM
EC50 (Colo-357 cells; read-out: pEC50 (converted)): 1.32 nM
EC50 (HuP-T4 cells; HuP-T4, read-out: EC50): 3.08 nM
EC50 (HuP-T4 cells; HuP-T4, read-out: pEC50 (converted)): 3.09 nM
Reponse (HuP-T4 cells; HuP-T4, R1, 13.72 nM): 312040
Reponse (HuP-T4 cells; HuP-T4, R1, 370.37 nM): 231280
Reponse (HuP-T4 cells; HuP-T4, R1, 1111.11 nM): 191240
Reponse (HuP-T4 cells; HuP-T4, R1, 3333.33 nM): 187320
Reponse (HuP-T4 cells; HuP-T4, R1, 10000 nM): 235360
Reponse (HuP-T4 cells; HuP-T4, R2, 13.72 nM): 353160
Reponse (HuP-T4 cells; HuP-T4, R2, 41.15 nM): 432720
Reponse (HuP-T4 cells; HuP-T4, R2, 123.46 nM): 313280
Reponse (HuP-T4 cells; HuP-T4, R2, 370.37 nM): 314320
Curve bottom (HuP-T4 cells; HuP-T4, GEM curve fit): 0.12
Curve effect size (HuP-T4 cells; HuP-T4, GEM curve fit): 0.88
Curve slope (HuP-T4 cells; HuP-T4, GEM curve fit): 4.56
Curve top (HuP-T4 cells; HuP-T4, GEM curve fit): 0.99
AUC (HuP-T4 cells; HuP-T4, GEM curve fit, in %): 35.37
EC50 (MiaPaCa-2 cells; MIA PaCa-2, read-out: EC50,GEM): ≥ 10 nM
EC50 (MiaPaCa-2 cells; MIA PaCa-2, read-out: EC50): 13.6 nM
EC50 (MiaPaCa-2 cells; MIA PaCa-2, read-out: pEC50 (converted)): 13.5 nM
Reponse (MiaPaCa-2 cells; MiaPaCa-2, R1, 13.72 nM): 4319964
Reponse (MiaPaCa-2 cells; MiaPaCa-2, R1, 41.15 nM): 2249377
Reponse (MiaPaCa-2 cells; MiaPaCa-2, R1, 123.46 nM): 1464819
Reponse (MiaPaCa-2 cells; MiaPaCa-2, R1, 370.37 nM): 1237785
Reponse (MiaPaCa-2 cells; MiaPaCa-2, R1, 1111.11 nM): 1237333
Reponse (MiaPaCa-2 cells; MiaPaCa-2, R1, 3333.33 nM): 1424454
Reponse (MiaPaCa-2 cells; MiaPaCa-2, R1, 10000 nM): 1232056
Reponse (MiaPaCa-2 cells; MiaPaCa-2, R2, 13.72 nM): 3184320
Reponse (MiaPaCa-2 cells; MiaPaCa-2, R2, 41.15 nM): 1827720
Reponse (MiaPaCa-2 cells; MiaPaCa-2, R2, 123.46 nM): 1167560
Reponse (MiaPaCa-2 cells; MiaPaCa-2, R2, 370.37 nM): 1308800
Reponse (MiaPaCa-2 cells; MiaPaCa-2, R2, 1111.11 nM): 1074400
Reponse (MiaPaCa-2 cells; MiaPaCa-2, R2, 3333.33 nM): 1132280
Reponse (MiaPaCa-2 cells; MiaPaCa-2, R2, 10000 nM): 1191360
Curve bottom (MiaPaCa-2 cells; MiaPaCa-2, GEM curve fit): 0.18
Curve effect size (MiaPaCa-2 cells; MiaPaCa-2, GEM curve fit): 0.81
Curve slope (MiaPaCa-2 cells; MiaPaCa-2, GEM curve fit): 1.52
Curve top (MiaPaCa-2 cells; MiaPaCa-2, GEM curve fit): 0.96
AUC (MiaPaCa-2 cells; MiaPaCa-2, GEM curve fit, in %): 51.47
EC50 (PANC-1 cells; Homo sapiens, PANC-1, read-out: EC50,GEM): ≥ 10 nM
Reponse (PANC-1 cells; PANC-1, R1, 13.72 nM): 5718200
Reponse (PANC-1 cells; PANC-1, R1, 41.15 nM): 4879000
Reponse (PANC-1 cells; PANC-1, R1, 370.37 nM): 4043760
Reponse (PANC-1 cells; PANC-1, R1, 1111.11 nM): 3920600
Reponse (PANC-1 cells; PANC-1, R1, 3333.33 nM): 3788160
Reponse (PANC-1 cells; PANC-1, R1, 10000 nM): 3980640
AUC (PANC-1 cells; PANC-1, GEM curve fit): 85.88
Curve bottom (PANC-1 cells; PANC-1, GEM curve fit): 0.69
Curve effect size (PANC-1 cells; PANC-1, GEM curve fit): 0.31
Curve slope (PANC-1 cells; PANC-1, GEM curve fit): 1.11
Curve top (PANC-1 cells; PANC-1, GEM curve fit): 1.01
Reponse (PANC-1 cells; Panc-1, R2, 41.15 nM): 5844240
Reponse (PANC-1 cells; Panc-1, R2, 123.46 nM): 5369400
Reponse (PANC-1 cells; Panc-1, R2, 370.37 nM): 5134080
Reponse (PANC-1 cells; Panc-1, R2, 1111.11 nM): 4763640
Reponse (PANC-1 cells; Panc-1, R2, 10000 nM): 4614040
Reponse (PANC-1 cells; Panc-1, replicate R2, dose 13.72 nM, raw signal): 6385680
EC50 (PaTu-8988-T cells; read-out: EC50,GEM): ≥ 10 nM
EC50 (PaTu-8988-T cells; read-out: EC50): 9.74 nM
EC50 (PaTu-8988-T cells; read-out: pEC50 (converted)): 9.77 nM
Reponse (PaTu-8988-T cells; PaTu-8988-T, R1, 13.72 nM): 1159840
Reponse (PaTu-8988-T cells; PaTu-8988-T, R1, 41.15 nM): 749200
Reponse (PaTu-8988-T cells; PaTu-8988-T, R1, 123.46 nM): 706000
Reponse (PaTu-8988-T cells; PaTu-8988-T, R1, 370.37 nM): 666320
Reponse (PaTu-8988-T cells; PaTu-8988-T, R1, 1111.11 nM): 670960
Reponse (PaTu-8988-T cells; PaTu-8988-T, R1, 3333.33 nM): 680760
Reponse (PaTu-8988-T cells; PaTu-8988-T, R1, 10000 nM): 674680
Reponse (PaTu-8988-T cells; PaTu-8988-T, replicate R2, dose 13.72 nM, raw signal): 1366360
Reponse (PaTu-8988-T cells; PaTu-8988-T, replicate R2, dose 41.15 nM, raw signal): 917320
Reponse (PaTu-8988-T cells; PaTu-8988-T, replicate R2, dose 123.46 nM, raw signal): 868680
Reponse (PaTu-8988-T cells; PaTu-8988-T, replicate R2, dose 370.37 nM, raw signal): 808920
Reponse (PaTu-8988-T cells; PaTu-8988-T, replicate R2, dose 3333.33 nM, raw signal): 899440
Reponse (PaTu-8988-T cells; PaTu-8988-T, replicate R2, dose 10000 nM, raw signal): 809960
Curve bottom (PaTu-8988-T cells; PaTu-8988-T, GEM curve fit): 0.31
Curve effect size (PaTu-8988-T cells; PaTu-8988-T, GEM curve fit): 0.68
Curve slope (PaTu-8988-T cells; PaTu-8988-T, GEM curve fit): 2.40
Curve top (PaTu-8988-T cells; PaTu-8988-T, GEM curve fit): 0.96
AUC (PaTu-8988-T cells; PaTu-8988-T, GEM curve fit, in %): 56.98
